According to the NIST ThermoML archive (doi:10.1016/j.jct.2008.10.008):
Several values for one entry are separate records, joined by “and”; a condition that tells them apart may be missing. Identical values can stand only once.

How the values were obtained:
[1] = for vapor or sublimation pressure: Inclined piston gauge
[2] = Molar enthalpy of transition or fusion
[3] = molar heat capacity at saturation pressure

CC(C)(C)c1ccccc1 [(1,1-dimethylethyl)benzene]
Settings	Triple point temperature [K]	molar heat capacity [J/K/mol]
[1], Crystal, Adiabatic calorimetry	215.31	–
[3], 5 K, Crystal	–	0.72
[3], 5.009 K, Crystal	–	0.72
[3], 5.752 K, Crystal	–	1.09
[3], 6.678 K, Crystal	–	1.68
[3], 7.653 K, Crystal	–	2.44
[3], 8.667 K, Crystal	–	3.35
[3], 9.709 K, Crystal	–	4.46
[3], 10 K, Crystal	–	4.79
[3], 10.84 K, Crystal	–	5.76
[3], 12.09 K, Crystal	–	7.28
[3], 13.47 K, Crystal	–	9.104
[3], 14.96 K, Crystal	–	11.15
[3], 16.6 K, Crystal	–	13.48
[3], 18.41 K, Crystal	–	16.04
[3], 20 K, Crystal	–	18.27
[3], 20.41 K, Crystal	–	18.84
[3], 22.63 K, Crystal	–	21.93
[3], 25.1 K, Crystal	–	25.19
[3], 27.86 K, Crystal	–	28.67
[3], 30 K, Crystal	–	31.19
[3], 30.93 K, Crystal	–	32.24
[3], 34.35 K, Crystal	–	35.9
[3], 38.17 K, Crystal	–	39.64
[3], 40 K, Crystal	–	41.3
[3], 42.44 K, Crystal	–	43.41
[3], 47.2 K, Crystal	–	47.28
[3], 50 K, Crystal	–	49.43
[3], 52.43 K, Crystal	–	51.23
[3], 53.45 K, Crystal	–	51.95
[3], 58.21 K, Crystal	–	55.36
[3], 58.43 K, Crystal	–	55.52
[3], 60 K, Crystal	–	56.6
[3], 64.04 K, Crystal	–	59.39
[3], 70 K, Crystal	–	63.57
[3], 70.32 K, Crystal	–	63.81
[3], 77.32 K, Crystal	–	68.59
[3], 80 K, Crystal	–	70.45
[3], 84.98 K, Crystal	–	73.93
[3], 87.08 K, Crystal	–	75.43
[3], 90 K, Crystal	–	77.44
[3], 93.34 K, Crystal	–	79.79
[3], 93.37 K, Crystal	–	79.85
[3], 100 K, Crystal	–	84.51
[3], 101.27 K, Crystal	–	85.43
[3], 102.4 K, Crystal	–	86.21
[3], 110.41 K, Crystal	–	91.89
[3], 111.86 K, Crystal	–	92.92
[3], 120 K, Crystal	–	98.68
[3], 120.01 K, Crystal	–	98.72
[3], 129.8 K, Crystal	–	105.69
[3], 139.62 K, Crystal	–	112.79
[3], 140 K, Crystal	–	113.02
[3], 149.52 K, Crystal	–	119.99
[3], 160 K, Crystal	–	127.65
[3], 160.53 K, Crystal	–	128.13
[3], 162.39 K, Crystal	–	129.37
[3], 172.82 K, Crystal	–	137.16
[3], 173.48 K, Crystal	–	137.69
[3], 180 K, Crystal	–	142.42
[3], 185.83 K, Crystal	–	147.07
[3], 186.21 K, Crystal	–	147.43
[3], 197.14 K, Crystal	–	156.12
[3], 200 K, Crystal	–	157.51
[3], 203.2 K, Crystal	–	162.61
[3], 206.78 K, Crystal	–	167.05
[3], 215.31 K, Crystal	–	169.1
[3], 215.31 K, Liquid	–	208.01
[3], 220 K, Liquid	–	209.58
[3], 223.09 K, Liquid	–	210.65
[3], 223.25 K, Liquid	–	210.68
[3], 232.46 K, Liquid	–	213.79
[3], 232.58 K, Liquid	–	213.79
[3], 240 K, Liquid	–	216.6
[3], 240.86 K, Liquid	–	216.97
[3], 253.04 K, Liquid	–	221.76
[3], 260 K, Liquid	–	224.65
[3], 265.37 K, Liquid	–	226.92
[3], 277.79 K, Liquid	–	232.27
[3], 280 K, Liquid	–	233.26
[3], 291.32 K, Liquid	–	238.42
[3], 294.64 K, Liquid	–	239.95
[3], 298.15 K, Liquid	–	241.59
[3], 300 K, Liquid	–	242.45
[3], 305.81 K, Liquid	–	245.17
[3], 311.47 K, Liquid	–	247.82
[3], 320 K, Liquid	–	251.92
[3], 329.17 K, Liquid	–	256.4
[3], 330 K, Liquid	–	256.8
[3], 340 K, Liquid	–	261.71
[3], 347.61 K, Liquid	–	265.47
[3], 360 K, Liquid	–	271.66
[3], 365.98 K, Liquid	–	274.65
[3], 380 K, Liquid	–	281.68
[3], 384.21 K, Liquid	–	283.78
[3], 400 K, Liquid	–	291.7
[3], 402.17 K, Liquid	–	292.78
[3], 419.78 K, Liquid	–	301.62
[3], 420 K, Liquid	–	301.72
[3], 435.18 K, Liquid	–	309.12
[3], 440 K, Liquid	–	311.52

Settings	Molar enthalpy of transition or fusion [kcal/mol]
[2], Crystal	2.0062

CC(C)(C)c1ccc(C(C)(C)C)cc1 [1,4-bis(1,1-dimethylethyl)benzene]
Settings	Triple point temperature [K]	molar heat capacity	vapor or sublimation pressure [kPa]
[1], 319.99 K, Crystal 2	–	–	0.0214
[1], 329.99 K, Crystal 2	–	–	0.0543
[1], 339.98 K, Crystal 2	–	–	0.1315
[1], 349.98 K, Crystal 2	–	–	0.2996
[1], 354.98 K, Liquid	–	–	0.4031
[1], 359.98 K, Liquid	–	–	0.5294
[1], 369.98 K, Liquid	–	–	0.8897
[1], 379.97 K, Liquid	–	–	1.445
[1], 387.02 K, Liquid	–	–	1.996
[1], 389.97 K, Liquid	–	–	2.276
[1], 394.97 K, Liquid	–	–	2.825
[1], Crystal, Adiabatic calorimetry	350.78	–	–
[3], 5 K, Crystal 2	–	0.22 J/K/mol	–
[3], 5.533 K, Crystal 2	–	0.3 J/K/mol	–
[3], 6.588 K, Crystal 2	–	0.58 J/K/mol	–
[3], 7.503 K, Crystal 2	–	0.948 J/K/mol	–
[3], 8.461 K, Crystal 2	–	1.45 J/K/mol	–
[3], 9.448 K, Crystal 2	–	2.15 J/K/mol	–
[3], 10 K, Crystal 2	–	2.66 J/K/mol	–
[3], 10.47 K, Crystal 2	–	3.13 J/K/mol	–
[3], 11.6 K, Crystal 2	–	4.28 J/K/mol	–
[3], 12.86 K, Crystal 2	–	5.92 J/K/mol	–
[3], 14.25 K, Crystal 2	–	7.97 J/K/mol	–
[3], 15.79 K, Crystal 2	–	10.43 J/K/mol	–
[3], 17.5 K, Crystal 2	–	13.43 J/K/mol	–
[3], 19.42 K, Crystal 2	–	16.89 J/K/mol	–
[3], 20 K, Crystal 2	–	17.93 J/K/mol	–
[3], 21.58 K, Crystal 2	–	20.82 J/K/mol	–
[3], 24 K, Crystal 2	–	25.18 J/K/mol	–
[3], 26.71 K, Crystal 2	–	29.9 J/K/mol	–
[3], 29.7 K, Crystal 2	–	34.78 J/K/mol	–
[3], 30 K, Crystal 2	–	35.25 J/K/mol	–
[3], 33.02 K, Crystal 2	–	39.81 J/K/mol	–
[3], 36.72 K, Crystal 2	–	44.96 J/K/mol	–
[3], 40 K, Crystal 2	–	49.12 J/K/mol	–
[3], 40.81 K, Crystal 2	–	50.11 J/K/mol	–
[3], 45.31 K, Crystal 2	–	55.45 J/K/mol	–
[3], 50 K, Crystal 2	–	60.83 J/K/mol	–
[3], 50.28 K, Crystal 2	–	61.18 J/K/mol	–
[3], 53.35 K, Crystal 2	–	64.41 J/K/mol	–
[3], 55.8 K, Crystal 2	–	67 J/K/mol	–
[3], 58.24 K, Crystal 2	–	69.81 J/K/mol	–
[3], 60 K, Crystal 2	–	71.59 J/K/mol	–
[3], 63.85 K, Crystal 2	–	75.62 J/K/mol	–
[3], 70 K, Crystal 2	–	82.39 J/K/mol	–
[3], 70.16 K, Crystal 2	–	82.56 J/K/mol	–
[3], 77.05 K, Crystal 2	–	90.04 J/K/mol	–
[3], 80 K, Crystal 2	–	93.26 J/K/mol	–
[3], 84.6 K, Crystal 2	–	98.29 J/K/mol	–
[3], 87.33 K, Crystal 2	–	101.34 J/K/mol	–
[3], 90 K, Crystal 2	–	104.26 J/K/mol	–
[3], 92.81 K, Crystal 2	–	107.36 J/K/mol	–
[3], 95.36 K, Crystal 2	–	110.2 J/K/mol	–
[3], 100 K, Crystal 2	–	115.33 J/K/mol	–
[3], 101.84 K, Crystal 2	–	117.33 J/K/mol	–
[3], 104.42 K, Crystal 2	–	120.11 J/K/mol	–
[3], 113.87 K, Crystal 2	–	130.45 J/K/mol	–
[3], 120 K, Crystal 2	–	137.01 J/K/mol	–
[3], 124.55 K, Crystal 2	–	141.81 J/K/mol	–
[3], 136.29 K, Crystal 2	–	154.01 J/K/mol	–
[3], 140 K, Crystal 2	–	157.79 J/K/mol	–
[3], 148.14 K, Crystal 2	–	166.03 J/K/mol	–
[3], 160 K, Crystal 2	–	177.95 J/K/mol	–
[3], 160.18 K, Crystal 2	–	178.15 J/K/mol	–
[3], 172.27 K, Crystal 2	–	190.18 J/K/mol	–
[3], 180 K, Crystal 2	–	197.9 J/K/mol	–
[3], 184.35 K, Crystal 2	–	202.24 J/K/mol	–
[3], 196.47 K, Crystal 2	–	214.21 J/K/mol	–
[3], 200 K, Crystal 2	–	217.74 J/K/mol	–
[3], 208.62 K, Crystal 2	–	226.43 J/K/mol	–
[3], 220 K, Crystal 2	–	238.04 J/K/mol	–
[3], 220.76 K, Crystal 2	–	238.82 J/K/mol	–
[3], 232.87 K, Crystal 2	–	251.39 J/K/mol	–
[3], 240 K, Crystal 2	–	258.93 J/K/mol	–
[3], 246.43 K, Crystal 2	–	265.79 J/K/mol	–
[3], 260 K, Crystal 2	–	280.44 J/K/mol	–
[3], 261.46 K, Crystal 2	–	282.02 J/K/mol	–
[3], 276.43 K, Crystal 2	–	298.62 J/K/mol	–
[3], 280 K, Crystal 2	–	302.57 J/K/mol	–
[3], 284.66 K, Crystal 2	–	307.57 J/K/mol	–
[3], 291.28 K, Crystal 2	–	315.23 J/K/mol	–
[3], 293.84 K, Crystal 2	–	318.28 J/K/mol	–
[3], 298.15 K, Crystal 2	–	323.15 J/K/mol	–
[3], 298.15 K, Liquid	–	347.84 J/K/mol	–
[3], 300 K, Crystal 2	–	325.26 J/K/mol	–
[3], 300 K, Liquid	–	349.41 J/K/mol	–
[3], 302.67 K, Crystal 2	–	328.3 J/K/mol	–
[3], 304.12 K, Crystal 2	–	330 J/K/mol	–
[3], 305.99 K, Crystal 2	–	332.26 J/K/mol	–
[3], 310 K, Liquid	–	357.8 J/K/mol	–
[3], 315.02 K, Crystal 2	–	342.89 J/K/mol	–
[3], 320 K, Crystal 2	–	348.63 J/K/mol	–
[3], 320 K, Liquid	–	366 J/K/mol	–
[3], 327.23 K, Crystal 2	–	357.27 J/K/mol	–
[3], 330 K, Liquid	–	374.03 J/K/mol	–
[3], 339.27 K, Crystal 2	–	372.29 J/K/mol	–
[3], 340 K, Crystal 2	–	373.15 J/K/mol	–
[3], 340 K, Liquid	–	381.92 J/K/mol	–
[3], 340.54 K, Crystal 2	–	373.89 J/K/mol	–
[3], 350 K, Liquid	–	389.72 J/K/mol	–
[3], 350.73 K, Crystal 1	–	375.72 J/K/mol	–
[3], 350.73 K, Crystal 2	–	386.83 J/K/mol	–
[3], 350.78 K, Crystal 1	–	375.79 J/K/mol	–
[3], 350.78 K, Liquid	–	390.31 J/K/mol	–
[3], 354.93 K, Liquid	–	393.57 J/K/mol	–
[3], 356.83 K, Liquid	–	395.01 J/K/mol	–
[3], 358.46 K, Liquid	–	396.37 J/K/mol	–
[3], 358.5 K, Liquid	–	396.23 J/K/mol and 396.2 J/K/mol	–
[3], 360 K, Liquid	–	397.37 J/K/mol	–
[3], 363.7 K, Liquid	–	400.3 J/K/mol	–
[3], 366.52 K, Liquid	–	402.21 J/K/mol	–
[3], 374.01 K, Liquid	–	407.95 J/K/mol	–
[3], 380 K, Liquid	–	412.36 J/K/mol	–
[3], 380.16 K, Liquid	–	412.53 J/K/mol	–
[3], 395.48 K, Liquid	–	423.8 J/K/mol	–
[3], 398.2 K, Liquid	–	425.82 J/K/mol	–
[3], 400 K, Liquid	–	427.09 J/K/mol	–
[3], 416.83 K, Liquid	–	439.37 J/K/mol	–
[3], 417.39 K, Liquid	–	439.74 J/K/mol	–
[3], 420 K, Liquid	–	441.61 J/K/mol	–
[3], 433.85 K, Liquid	–	451.62 J/K/mol	–
[3], 435.24 K, Liquid	–	452.59 J/K/mol	–
[3], 440 K, Liquid	–	456.08 J/K/mol	–

Settings	Molar enthalpy of transition or fusion, [2] [kcal/mol]	Triple point temperature, [1] [K]
Crystal 1	1.9627	–
Crystal 2	3.4321	350.73
